Data as given in US7335756B2, “Retinoic acid metabolizing cytochrome P450” (Cytochroma Inc., priority 2001, dated 2008).
Values joined by “and” are separate entries in the source; they are usually repeats but may differ in a detail not shown here. Equal entries are not always repeated. Where two headings read alike, the source gives them in different places. Blank lines part the entries; values can stand above or below the compound they belong to.

What was measured:
CYP26-B [1] = target: T1, CYP26-B (Homo sapiens, UniProt Q9NR63); experiment: [3H]-RA-metabolism inhibition in Sf9-Bac-CYP26-B insect microsomes; format: biochemical; details: at much higher concentrations
T1 sequence (Q9NR63 1-512): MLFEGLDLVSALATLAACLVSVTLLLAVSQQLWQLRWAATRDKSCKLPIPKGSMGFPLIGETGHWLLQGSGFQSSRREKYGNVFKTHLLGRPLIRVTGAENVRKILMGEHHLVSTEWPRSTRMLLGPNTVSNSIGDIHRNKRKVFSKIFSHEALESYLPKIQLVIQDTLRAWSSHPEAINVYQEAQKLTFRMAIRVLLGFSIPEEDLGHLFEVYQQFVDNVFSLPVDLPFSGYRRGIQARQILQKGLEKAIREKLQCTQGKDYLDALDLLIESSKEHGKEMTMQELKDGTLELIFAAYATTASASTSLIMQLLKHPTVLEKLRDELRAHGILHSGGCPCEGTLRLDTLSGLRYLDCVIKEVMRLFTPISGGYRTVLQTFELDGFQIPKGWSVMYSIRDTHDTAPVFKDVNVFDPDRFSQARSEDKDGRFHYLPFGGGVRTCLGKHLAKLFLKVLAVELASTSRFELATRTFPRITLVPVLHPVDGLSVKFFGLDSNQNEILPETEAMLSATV
Experimental: (§1) RA-metabolism activity was assessed using RA-metabolism microsomes-based assay and Bligh Dyer extraction as follows: Using an automatic repeating-pipette, gently thawed and homogenized microsomes were plated in a 48-well plate in final volume of 150 μl of storage buffer containing 0.5 mg/ml BSA. At indicated concentration 2 μl of compound solution was added to the assay and 2 μl of DMSO was added to MS control (quadruplet) and No-MS control. 50 μl of [^3H]-RA solution (30,000 cpm, 2 nM final concentration) was added. […] After 1-hour incubation the reaction was stopped by adding 5 μl of 10% acetic acid. Organic and aqueous soluble radio-labelled metabolites were extracted using the Bligh-Dyer procedure. Saturated activity obtained in presence of NADPH at 5 μg of microsomes, FIG. 14.

CYP26-A = target: T2, CYP26-A (Homo sapiens, UniProt O43174, E104D/H105D/L421A/M420S); experiment: 9-cis-RA binding assay, CYP26-A; details: substrate 0.05 nM to 1000 nM, linear, Kd not determinable
T2 sequence (O43174 1-497 E104D/H105D/M420S/L421A): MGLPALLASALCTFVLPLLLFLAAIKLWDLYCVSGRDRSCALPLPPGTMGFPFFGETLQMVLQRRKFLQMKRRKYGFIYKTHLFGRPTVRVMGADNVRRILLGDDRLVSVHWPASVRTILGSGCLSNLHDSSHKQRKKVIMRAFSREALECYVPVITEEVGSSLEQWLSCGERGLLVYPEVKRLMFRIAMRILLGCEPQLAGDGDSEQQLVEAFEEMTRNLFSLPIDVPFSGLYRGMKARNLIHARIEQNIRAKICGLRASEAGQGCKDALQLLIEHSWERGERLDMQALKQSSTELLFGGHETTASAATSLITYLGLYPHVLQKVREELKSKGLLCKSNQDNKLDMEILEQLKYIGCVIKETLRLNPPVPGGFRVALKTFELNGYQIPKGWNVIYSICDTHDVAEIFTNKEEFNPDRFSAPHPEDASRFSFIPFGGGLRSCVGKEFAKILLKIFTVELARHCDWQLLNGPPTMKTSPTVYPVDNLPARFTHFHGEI

P450RAI-3 [2] = target: T3, P450RAI-3 (Homo sapiens, UniProt Q6V0L0, F447L); experiment: LC/MS analysis of ATRA and 9-cis-RA metabolism in Hela-P450RAI-3 stable cells; details: 5 hours
T3 sequence (Q6V0L0 1-522 F447L): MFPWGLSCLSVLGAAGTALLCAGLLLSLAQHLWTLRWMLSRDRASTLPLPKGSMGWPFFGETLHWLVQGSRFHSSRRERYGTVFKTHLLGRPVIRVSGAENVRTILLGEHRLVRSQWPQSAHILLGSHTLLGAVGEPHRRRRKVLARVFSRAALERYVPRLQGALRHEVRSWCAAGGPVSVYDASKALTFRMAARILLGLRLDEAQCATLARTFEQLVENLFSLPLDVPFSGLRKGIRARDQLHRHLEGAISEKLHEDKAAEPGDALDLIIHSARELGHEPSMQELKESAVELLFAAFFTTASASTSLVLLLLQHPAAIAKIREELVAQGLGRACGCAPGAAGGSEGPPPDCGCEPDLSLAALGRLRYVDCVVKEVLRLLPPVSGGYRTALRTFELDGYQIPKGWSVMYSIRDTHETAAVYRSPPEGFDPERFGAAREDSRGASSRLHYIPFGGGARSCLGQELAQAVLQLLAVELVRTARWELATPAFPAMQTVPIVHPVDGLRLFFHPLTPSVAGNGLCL
Experimental: After 5 hours incubation at 37° C., cells were acidified with acetic acid and total retinoids were extracted using Ethyl acetate method. The organic upper layer was pooled and evaporated in speed-vacuum, and dried residues were dissolved in HPLC mobile solvent and analyzed in LC/MS.
The HPLC system consisted of a waters alliance 2690 separations module. Chromatography was obtained on an Eclipse X DB-C18 reverse phase column (5 um, 2.1×150 mm from HP). A gradient elution program was used using acetonitrile, water and 10% acetic acid. The flow was held at 0.2 ml/min.
Mass Spectrometry condition used for this work consisted of a Micro-mass Quatro Ultima Tandem triple quadruple mass spectrometer equipped with electrospray interface (ESI) and operated in a negative mode.

P450RAI-3 [3] = target: T3, P450RAI-3; experiment: ATRA and 9-cis-RA binding assay, Sf9-Bac-P450RAI-3 insect microsomes; details: for Kd: Table 4 prints no unit
CYP26-B [4] = target: T1, CYP26-B; experiment: ATRA and 9-cis-RA binding assay, CYP26-B microsomes; set-up: made in house; host or cells: HeLa cells stably expressing CYP26-B, microsomal fraction; details: substrate 0.05 nM to 1000 nM, linear, Kd not determinable
P450RAI-3 [5] = target: T3, P450RAI-3; experiment: [3H]-RA-metabolism inhibition, transient Cos-P450RAI-3 cell-based assay; set-up: expressed in transfected cells; host or cells: COS-1 (transient, pcDNA-P450RAI-3, Fugene); details: at lower concentrations
Experimental: (§2) The purpose of these experiments is to determine the specific substrates for P450RAI-3. […] The RA metabolism reaction was started by the addition of 50 ul of [^3H]-RA solution (20000 cpm, 2 nM final concentration). Cells were incubated for 3 hours in a humidified CO2 incubator at 37 degrees Celsius. The reaction was stopped by the addition of 5 ul of 10% acetic acid. Organic and aqueous soluble radio-labelled metabolites were extracted using the Bligh-Dyer procedure.

P450RAI-3 [6] = target: T3, P450RAI-3; experiment: ATRA / 9-cis-RA metabolism in pcDNA-P450RAI-3 transfected Cos-1 cells (Bligh-Dyer, HPLC); format: cell-based; set-up: expressed in transfected cells; host or cells: COS-1 (transient, pcDNA-P450RAI-3, Fugene); details: 2 nM radio-labeled substrate, 3 hours
Experimental: Mammalian Cos-1 cells were transfected with either pcDNA-P450RAI-3 or pcDNA-control vector using Fugene™ (Roche diagnostic) according to the manufacturers directions. After 48 hours post-tranfection, cells were washed with PBS and assessed for ATRA-metabolism activity as described Briefly, transfected cells were incubated with radio-labeled ^3[H]-ATRA (18000 cpm, 2 nM) for 3 hours. Organic and Water-soluble metabolites were extracted using Bligh-Dyer procedure and radioactivity counted (FIG. 10).
HPLC analysis of the organic metabolites: the Bligh-Dyer organic button-layer was dried out and residues were suspended in HPLC solvent and then analyzed by HPLC as described in [White et al, PNAS, vol 97, pg 6403-6408], FIG. 11.
Mammalian Cos-1 cells were transfected with either pcDNA-P450RAI-3 or pcDNA-control vector according to the manufacturers directions using Fugene (Roche). After 48 hours post-tranfection, cells were washed with PBS and assessed for 9-cis-RA-metabolism activity as described using Bligh-Dyer procedure. Briefly, transfected cells were incubated with radio-labeled ^3[H]-9-cis-RA (38000 cpm, 2 nM) for 3 hours. Organic and Water-soluble metabolites were extracted using Bligh-Dyer procedure and radioactivity counted, FIG. 19.

CYP26-B [7] = target: T1, CYP26-B; experiment: [3H]-RA-metabolism inhibition, transient Cos-CYP26-B cell-based assay; details: at lower concentrations
CYP26-B [8] = target: T1, CYP26-B; experiment: [3H]-RA-metabolism inhibition in mammalian microsomes from stable Hela-CYP26-B cells; format: biochemical; set-up: made in house; host or cells: HeLa cells stably expressing CYP26-B, microsomal fraction
Experimental: as §1
(§3) Microsomes prepared from either stable Hela-CYP26-B or transient P450RAI-3-transfected Cos cells were used.

P450RAI-3 [9] = target: T3, P450RAI-3; experiment: [3H]-RA-metabolism inhibition in Sf9-Bac-P450RAI-3 insect microsomes; format: biochemical; details: 2 nM [3H]-RA, NADPH, 1 hour, read-out: ID50 (nM) Sf9-P450RAI-3
Experimental: Microsomes from P450RAI-3 and CYP26B infected Sf-9 cells were made as follows: exponentially growing cells were harvested, washed with ice-cold PBS, counted then homogenized and sonicated in lysis buffer containing protease inhibitors cocktail (10^8 cells par 5 ml lyses buffer). Since P450RAI-3 is a microsomal cytochrome, it preferably uses NADPH cytochromic P450 reductase and a flavoprotein for activity. The microsomes were isolated by differential centrifugations (10 min at 800×g, than 10 min at 10,000×g and finally the postmitichondirial supernatant was centrifuged at 100,000×g for 60 min using ultracentrifuge (Beckman). The microsomal pellet was isolated and homogenized gently in the storage buffer containing protease inhibitors cocktail. Protein concentration in the microsomal preparation was determined using a […] reaction assay kit with BSA as standards (Pierce). The absorbance at 562 nm of standards (BSA at 1, 0.5, 0.25, 0.125, and 0.0625 mg/ml) and 3 dilutions of microsomes samples (⅕, 1/10 and 1/20) was determined using an automatic microplate reader (μQuant, BioTek instruments Inc.). The protein concentration directly calculated by the software (KCJunior). […] Microsomes were assessed for P450 content by carbon monoxide assay and total P450 content was determined at 3 nmol/ml. […]

P450RAI-3 [10] = target: T3, P450RAI-3; experiment: [3H]-RA-metabolism inhibition (substrate competition) in P450RAI-3 stable transfected Hela cells; format: cell-based; set-up: expressed in transfected cells; details: 2 nM [3H]-RA
Experimental: as §2

P450RAI-3 [11] = target: T3, P450RAI-3; experiment: [3H]-RA-metabolism inhibition in mammalian microsomes from transient P450RAI-3-transfected Cos cells; format: biochemical; set-up: expressed in transfected cells; host or cells: COS-1 (transient, pcDNA-P450RAI-3, Fugene)
Experimental: RA-metabolism activity was assessed using RA-metabolism microsomes-based assay and Bligh Dyer extraction as follows: Using an automatic repeating-pipette, gently thawed and homogenized microsomes were plated in a 48-well plate in final volume of 150 μl of storage buffer containing 0.5 mg/ml BSA. At indicated concentration 2 μl of compound solution was added to the assay and 2 μl of DMSO was added to MS control (quadruplet) and No-MS control. 50 μl of [^3H]-RA solution (30,000 cpm, 2 nM final concentration) was added. The microsomes assay with the compounds and the [^3H]-ATRA were incubated first for 10 min at 37° C., and then the reaction started by adding 20 μl of NADPH solution (or 1 mM final). After 1-hour incubation the reaction was stopped by adding 5 μl of 10% acetic acid. Organic and aqueous soluble radio-labelled metabolites were extracted using the Bligh-Dyer procedure. Saturated activity obtained in presence of NADPH at 5 μg of microsomes, FIG. 14.
as §3

competition / inhibition of CYP26-B (CYP26-B [7]): not a substrate
competition for CYP26B (CYP26-B [8]): did not compete at lower concentrations
competition / inhibition of P450RAI-3 (P450RAI-3 [5]): not a substrate
SMILES: CC1=C(/C=C/C(C)=C/C=C/C(C)=C\C(=O)O)C(C)(C)CCC1 [13-cis-RA]

substrate for CYP26-C (P450RAI-3 [10]): not substrates
SMILES: CC1=C(/C=C/C(C)=C/C=C/C(C)=C/CO)C(C)(C)CCC1 [Retinol]

Further lines, the compound ahead of its results:

SMILES: CC1=C(/C=C/C(C)=C\C=C\C(C)=C\C(=O)O)C(C)(C)CCC1 [9-cis-RA, 9-cis-retnoic acid]
competition for CYP26-B (CYP26-B [1]): very weak 9-cis-RA competition
binding to CYP26-A (CYP26-A): weak binding
metabolites formed by P450RAI-3 (P450RAI-3 [2]): hydroxy and oxo-metabolites
Kd (P450RAI-3 [3]; read-out: Kd, substrate binding to P450RAI-3, insect microsomes, nM): 69 nM
binding to P450RAI-3 microsomes (P450RAI-3 [3]; substrate 0.05 nM to 1000 nM): Very good binding
binding to CYP26-B (CYP26-B [4]): weak binding
competition / inhibition of P450RAI-3 (P450RAI-3 [5]): competed only for P450RAI-3
metabolism by P450RAI-3 (P450RAI-3 [6]): converted 9-cis-RA to the hydoxy and oxo-metabolites and to more polar water-soluble metabolites

SMILES: CC(=O)N1CCN(c2ccc(OCC3COC(Cn4ccnc4)(c4ccc(Cl)cc4Cl)O3)cc2)CC1 (stereo not drawn) [Ketoconazole, ketoconazole]
competition / inhibition of CYP26-B (CYP26-B [7]): inhibited
IC50 (P450RAI-3 [9]): > 10000 nM
IC50 (P450RAI-3 [10]; read-out: ID50, competition for P450RAI-3 [3H]-RA metabolism): 70 µM
Kd (P450RAI-3 [3]; Kd, competition of ATRA binding to P450RAI-3, ketoconazole up to 100 μM, μM): 70500 nM and 75000 nM
inhibition at 10 µM (P450RAI-3 [3]; read-out: inhibition of ATRA binding to P450RAI-3): 15%
competition / inhibition of P450RAI-3 (P450RAI-3 [5]): weak inhibitor
IC50 (P450RAI-3 [11]; read-out: ID50 (nM) P450RAI-3): 72000 nM
IC50 (P450RAI-3 [11]; read-out: ID50 P450RAI-3): 70000 nM

SMILES: CC1=C(/C=C/C(C)=C/C=C/C(C)=C/C=O)C(C)(C)CCC1 [Retinal]
substrate for CYP26-C (P450RAI-3 [10]): not substrates
